From patent US8663669B2, “Pesticide treatment of soils or substrates with sulphur compounds” (Arkema France, priority 2002, dated 2014)

Test system: Phytophthora cactorum
Experiment: Fungicidal efficacy by gassing, colonized millet grains
Format: cell-based
Design: Vitality score Nm (over 12 days): scale not given here; Reduction in viability RV / Reduction in vitality score RNm: unit not given here
Conditions: for Reduction in viability RV / Reduction in vitality score RNm: compared with the control
Source text: These four organisms are the following:
Phytophthora cactorum, one of the best known representatives of the Phytophthora family, polyphagous fungi which attack mainly tomato, sweet pepper and strawberry plants, these three crops representing the majority of the worldwide consumption of methyl bromide. Phytophthora cactorum, in particular, attacks mainly the strawberry plant and fruit trees.
• Sclerotinia sclerotiorum: sclerotia • Sclerotium rolfsii: sclerotia • Rhizoctonia solani: colonized barley grains (mycelium and sclerotia) • Phytophthora cactorum: colonized millet grains (mycelium, sporangia and oospores) Preparation of the Fungi (24 h Before the Gassing Operation) 1. Preparation of the sclerotia of Sclerotinia sclerotiorum and of Sclerotium rolfsii: The fungi are cultured on malt agar medium until the sclerotia are obtained. The sclerotia are collected in a sterile manner and stored dry in empty Petri dishes until they are used. The sclerotia used for the trial are over 3 months old and are perfectly dormant. 2. Preparation of Phytophthora cactorum and of Rhizoctonia solani: The millet and barley used for the multiplication of the two fungi are moistened with ultrapure water by immersing for 24 hours. The grains are then slightly drained and then distributed into flasks and autoclaved (3 autoclavings at 110° C. for 20 minutes, 3 times at 24 hour intervals). Fragments of fungal culture are introduced into the flasks which are then incubated at 22° C.±2° C. (white light 18 h) until homogeneous colonization is obtained. The grains are then removed from the flasks in a sterile manner, dried in the sterile stream of a safety cabinet and then stored in the dry state until they are used. Conditions for Gassing and for Desorption
All the batches of fungi to be treated are placed for a few hours at the trial temperature (20° C.). Between 35 and 300 units of fungi or “propagules” (grains or sclerotia) are subjected to gassing during each trial.
Each fumigation chamber comprising to one or more species of fungi corresponds to a glass round-bottomed flask which is impervious to the gas and has a volume of 11 litres. Each round-bottomed flask is equipped with branch connections, one at the bottom for introducing the liquid DMDS, one at the top for collecting the air sample with a syringe.
Before introducing the gas, a partial vacuum (−500 mbar) is established in the round-bottomed flask with a vacuum pump. This makes it possible, on the one hand, to avoid the phenomenon of excess pressure due to the expansibility of DMDS in the round-bottomed flask and, on the other hand, to promote better homogeneity of the air-gas mixture in the first few seconds which follow injection. The DMDS (weighed accurately to the mg) is injected with a syringe, in liquid form, through the bottom branch connection, that is to say under the screen placed at half height of the round-bottomed flask and supporting the batches of fungi. After introducing the product, the internal pressure of the round-bottomed flask is re-established at atmospheric pressure. A magnetic stirrer operates during the entire duration of the treatment in order to properly homogenize the air-gas mixture.
At the end of the gassing, the cover for the round-bottomed flask is removed. One minute after this operation, the batches of fungi gassed are taken out and left in the open air for 15 minutes for desorption of the DMDS. They are then transferred into a Petri dish, the latter remaining open for 5 minutes to allow perfect desorption of the gas. […]

[1] = CT 1 050 g·h/m^3 (C 15.91 g/m^3, T 66 h)
[2] = CT 1 402 g·h/m^3 (C 21.24 g/m^3, T 66 h)
[3] = CT 1 450 g·h/m^3 (C 30.96 g/m^3, T 48 h)
[4] = CT 1 899 g·h/m^3 (C 28.77 g/m^3, T 66 h)
[5] = CT 1 981 g·h/m^3 (C 30.02 g/m^3, T 66 h)
[6] = CT 2 460 g·h/m^3 (C 51.25 g/m^3, T 48 h)
[7] = CT 2 837 g·h/m^3 (C 42.98 g/m^3, T 66 h)
[8] = CT 3 169 g·h/m^3 (C 48.02 g/m^3, T 66 h)
[9] = CT 3 467 g·h/m^3 (C 52.53 g/m^3, T 66 h)
[10] = CT 419 g·h/m^3 (C 17.46 g/m^3, T 24 h)
[11] = CT 625 g·h/m^3 (C 26.04 g/m^3, T 24 h)
[12] = CT 703 g·h/m^3 (C 29.29 g/m^3, T 24 h)
[13] = CT 907 g·h/m^3 (C 37.79 g/m^3, T 24 h)

CSSC [DMDS, dimethyl disulphide]
Viability V [1]: 95% | Vitality score Nm (over 12 days) [1]: 5.5 | Reduction in viability RV [1]: 5.0 | Reduction in vitality score RNm [1]: 43.1 | Viability V [2]: 97.8% | Vitality score Nm (over 12 days) [2]: 6.6 | Reduction in viability RV [2]: 2.2 | Reduction in vitality score RNm [2]: 32.2 | Viability V [3]: 95% | Vitality score Nm (over 12 days) [3]: 5.4 | Reduction in viability RV [3]: 3.4 | Reduction in vitality score RNm [3]: 40.7 | Viability V [4]: 97.8% | Vitality score Nm (over 12 days) [4]: 5.6 | Reduction in viability RV [4]: 2.2 | Reduction in vitality score RNm [4]: 42.6 | Viability V [5]: 97.8% | Vitality score Nm (over 12 days) [5]: 5.3 | Reduction in viability RV [5]: 2.2 | Reduction in vitality score RNm [5]: 45.7 | Viability V [6]: 43.3% | Vitality score Nm (over 12 days) [6]: 1.7 | Reduction in viability RV [6]: 55.9 | Reduction in vitality score RNm [6]: 81.2 | Viability V [7]: 16.7% | Vitality score Nm (over 12 days) [7]: 0.6 | Reduction in viability RV [7]: 83.3 | Reduction in vitality score RNm [7]: 93.6 | Viability V [8]: 1.1% | Vitality score Nm (over 12 days) [8]: 0.05 | Reduction in viability RV [8]: 98.9 | Reduction in vitality score RNm [8]: 99.5 | Viability V [9]: 0% | Vitality score Nm (over 12 days) [9]: 0 | Reduction in viability RV [9]: 100 | Reduction in vitality score RNm [9]: 100 | Viability V [10]: 91.7% | Vitality score Nm (over 12 days) [10]: 7.7 | Reduction in viability RV [10]: 6.8 | Reduction in vitality score RNm [10]: 15.5 | Viability V [11]: 100% | Vitality score Nm (over 12 days) [11]: 8.05 | Reduction in viability RV [11]: −1.7 | Reduction in vitality score RNm [11]: 11.9 | Viability V [12]: 100% | Vitality score Nm (over 12 days) [12]: 8.3 | Reduction in viability RV [12]: −1.7 | Reduction in vitality score RNm [12]: 9.1 | Viability V [13]: 100% | Vitality score Nm (over 12 days) [13]: 7.2 | Reduction in viability RV [13]: −1.7 | Reduction in vitality score RNm [13]: 21.2
